Source: patent publication US20080004302A1, “Novel Compounds” (ASTRAZENECA AB, priority 2006, published 2008)
Where a name gives a salt, the structure may show the parent alone.

Key:
FGFR1 IIIc [1] = biological target: T1, FGFR1 IIIc (Homo sapiens, UniProt P11362); test: Cell based inhibition of transiently expressed FGFR1 IIIc phosphorylation via use of ECHO technology (Cos-1 cells); settings: Cos-1 cells, phospho-FGFR1, ECHO dosing; upper bound of bin; read-out: IC50
T1 construct: host or cells: Cos-1
Method: (§1) This assay is designed to detect inhibitors of transiently expressed FGFR1 phosphorylation by antibody staining of fixed cells detected using ArrayScan technology.
(§2) To undertake the assay, Cos-1 cells were harvested at 90-95% confluence for cell transfection. For each 96-well plate, 24μl Lipofectamine 2000 was added to 809 ul OptiMEM and incubated at room temperature for 5 minutes. […] Equal volumes of DNA and Lipofectamine 2000 were combined (DNA: Lipid=1:1.2 ratio) and incubated at room temperature for 20 minutes.
The harvested Cos-1 cells are counted using a coulter counter and diluted further with 1% FCS/DMEM to 2.5×10^5 cells/ml. For each 96-well, 8.33 ml cells were required. […] 70 μl of media was aspirated from the assay plate using the Quadra before the plate was transferred onto the ECHO 550. […] Compound transfer to the assay plate on the ECHO 550 was at concentration ranges 1)10 μM, 2) 3 μM, 3) 1 μM, 4) 0.3 μM, 5) 0.1 μM, 6) […].
The plates were gently tapped to mix compound in with the cell media and left to incubate at 37° C. with 5% CO2 for 1 hour.
Media was removed from the wells using vacuum aspiration; cells were fixed by adding 50 μl of 100% methanol to each well and incubated at room temperature for 20 minutes.
(§3) The plates were read on an Arrayscan (Cellomics).

FGFR1 IIIc [2] = biological target: T1, FGFR1 IIIc; test: Cell based inhibition of transiently expressed FGFR1 IIIc phosphorylation (Cos-1 cells); settings: Cos-1 cells, phospho-FGFR1; upper bound of bin; read-out: IC50
Method: as §1
as §2, with “24 ul” for “24μl”
The harvested Cos-1 cells are counted using a coulter counter and diluted further with 1% FCS/DMEM to 2.5×10^5 cells/ml. For each 96-well, 8.33 ml cells were required. […] Media was removed from the wells using vacuum aspiration; cells were fixed by adding 50μl of 100% methanol to each well and incubated at room temperature for 20 minutes.
as §3

Erk phosphorylation = test: Growth factor (bFGF) stimulated Erk phosphorylation in NIH 3T3 cells; settings: Mus musculus, NIH3T3, NIH 3T3 cells, 3 ng/ml bFGF
FGFR1 kinase = FGFR1 kinase (Homo sapiens, UniProt P11362); test: Kinase assay (using Caliper technology); assay type: biochemical; settings: FGFR1 kinase, Caliper; upper bound of bin; read-out: IC50
Method: To determine inhibition of FGFR activity, kinase assays were conducted using Caliper technology.
Kinase activity assays were performed in Greiner 384-well low volume plates, with a total reaction volume of 12ul per well. […] The substrate for each assay was a custom peptide with fluorescent tag (13 amino acids in length) the sequence of which was specific for FGFR1 kinase.
Compounds were serially diluted in 5% (v/v) DMSO, before being added to assay plates.
Assay plates were incubated at room temperature for 1.5 h, before the reaction was stopped with the addition of buffer [comprising: 100 mM HEPES—pH7.5, 0.033% Brij-35, 0.22% Caliper Coating Reagent #3, 88mM EDTA, 5% DMSO]. Stopped assay plates were then read using the Caliper LabChip® LC3000 (which uses microfludics to measure a shift in mobility between fluorescent labelled peptide and the FGFR1 kinase—phosphorylated form of this peptide).

human IGF1R = biological target: T2, human IGF1R (Homo sapiens, UniProt P08069); test: Inhibition of insulin-like growth factor-1 receptor phosphorylation in R+ cells; assay type: cell-based; settings: 30 nM IGF1, read-out: IGF cell class
T2 construct: expressed in transfected cells; host or cells: R+ cells (R- mouse fibroblasts transfected with human IGF1R)
Method: This immunofluorescence end point cell assay measures the ability of a test compound to reduce the measured levels of IGF1R phosphorylation after IGF1 stimulation in R^+ cells. […] were derived by transfection of R^− mouse fibroblast cells with human IGF1R.
(+5% CO2) incubator for 30 minutes.
Following the compound treatment, the R^+ cells were stimulated with a final concentration of 30 nM IGF1 (Gropep 1M001) for 20 minutes at 37° C. […] Plates were incubated for 1 hour at room temperature. […] Additionally, in-house antibodies raised against phospho […] were also used at a suitable titre determined for each batch.
The plates were incubated at room temperature for one hour. […] After addition of 100 μl/well PBS the plates were sealed with a black seal.
The Green Fluorescent phospho IGF1R -associated signal in each well was measured using an Acumen Explorer HTS Reader (TTP Labtech Ltd., Cambridge). […] The instrument is a laser-scanning fluorescence microplate cytometer, which samples the well at regular intervals and uses threshold algorithms to identify all fluorescent intensities above the solution background without the need to generate and analyse an image. These fluorescent objects can be quantified and provide a measure of the phospho IGF1R levels in cells. Fluorescence dose response data obtained with each compound was exported into a suitable software package (such as Origin) to perform curve fitting analysis. Phospho-IGF1R levels in response to compound treatment versus stimulated and unstimulated controls were expressed as an IC50 value.

T2 sequence (P08069 31-1367): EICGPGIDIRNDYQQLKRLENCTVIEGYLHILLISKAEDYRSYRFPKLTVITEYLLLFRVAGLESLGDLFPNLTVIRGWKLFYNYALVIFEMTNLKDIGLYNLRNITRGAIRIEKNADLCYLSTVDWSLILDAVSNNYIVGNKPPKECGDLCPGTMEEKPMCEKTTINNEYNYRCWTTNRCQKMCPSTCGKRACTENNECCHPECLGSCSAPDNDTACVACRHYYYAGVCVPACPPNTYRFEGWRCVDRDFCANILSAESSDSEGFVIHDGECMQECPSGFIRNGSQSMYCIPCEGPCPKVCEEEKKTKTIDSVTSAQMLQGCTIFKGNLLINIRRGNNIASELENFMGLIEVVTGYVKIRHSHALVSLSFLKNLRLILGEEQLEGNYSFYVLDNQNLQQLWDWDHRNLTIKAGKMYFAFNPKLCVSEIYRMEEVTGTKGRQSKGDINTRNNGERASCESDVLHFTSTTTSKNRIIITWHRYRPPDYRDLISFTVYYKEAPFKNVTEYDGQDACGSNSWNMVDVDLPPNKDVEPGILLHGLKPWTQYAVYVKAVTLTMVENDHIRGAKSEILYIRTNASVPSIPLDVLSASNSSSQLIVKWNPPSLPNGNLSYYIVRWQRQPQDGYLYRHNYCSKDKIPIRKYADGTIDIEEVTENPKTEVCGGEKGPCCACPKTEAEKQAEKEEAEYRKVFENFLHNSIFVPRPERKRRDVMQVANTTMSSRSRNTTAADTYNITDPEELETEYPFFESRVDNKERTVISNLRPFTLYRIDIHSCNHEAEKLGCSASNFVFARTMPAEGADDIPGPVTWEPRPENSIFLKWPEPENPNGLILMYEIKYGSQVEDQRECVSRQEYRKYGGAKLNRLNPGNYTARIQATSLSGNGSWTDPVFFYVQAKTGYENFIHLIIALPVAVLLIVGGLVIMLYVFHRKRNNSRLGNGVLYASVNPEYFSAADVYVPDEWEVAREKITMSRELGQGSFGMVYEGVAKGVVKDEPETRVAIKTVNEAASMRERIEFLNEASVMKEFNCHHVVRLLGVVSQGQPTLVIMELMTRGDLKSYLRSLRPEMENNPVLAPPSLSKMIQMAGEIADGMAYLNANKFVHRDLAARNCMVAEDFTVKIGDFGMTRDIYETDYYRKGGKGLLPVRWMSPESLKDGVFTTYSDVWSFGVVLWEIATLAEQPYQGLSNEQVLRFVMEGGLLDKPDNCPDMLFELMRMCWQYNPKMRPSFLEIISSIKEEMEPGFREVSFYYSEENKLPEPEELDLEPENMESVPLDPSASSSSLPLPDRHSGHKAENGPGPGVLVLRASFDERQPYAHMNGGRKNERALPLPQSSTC
T1 sequence (P11362 22-822): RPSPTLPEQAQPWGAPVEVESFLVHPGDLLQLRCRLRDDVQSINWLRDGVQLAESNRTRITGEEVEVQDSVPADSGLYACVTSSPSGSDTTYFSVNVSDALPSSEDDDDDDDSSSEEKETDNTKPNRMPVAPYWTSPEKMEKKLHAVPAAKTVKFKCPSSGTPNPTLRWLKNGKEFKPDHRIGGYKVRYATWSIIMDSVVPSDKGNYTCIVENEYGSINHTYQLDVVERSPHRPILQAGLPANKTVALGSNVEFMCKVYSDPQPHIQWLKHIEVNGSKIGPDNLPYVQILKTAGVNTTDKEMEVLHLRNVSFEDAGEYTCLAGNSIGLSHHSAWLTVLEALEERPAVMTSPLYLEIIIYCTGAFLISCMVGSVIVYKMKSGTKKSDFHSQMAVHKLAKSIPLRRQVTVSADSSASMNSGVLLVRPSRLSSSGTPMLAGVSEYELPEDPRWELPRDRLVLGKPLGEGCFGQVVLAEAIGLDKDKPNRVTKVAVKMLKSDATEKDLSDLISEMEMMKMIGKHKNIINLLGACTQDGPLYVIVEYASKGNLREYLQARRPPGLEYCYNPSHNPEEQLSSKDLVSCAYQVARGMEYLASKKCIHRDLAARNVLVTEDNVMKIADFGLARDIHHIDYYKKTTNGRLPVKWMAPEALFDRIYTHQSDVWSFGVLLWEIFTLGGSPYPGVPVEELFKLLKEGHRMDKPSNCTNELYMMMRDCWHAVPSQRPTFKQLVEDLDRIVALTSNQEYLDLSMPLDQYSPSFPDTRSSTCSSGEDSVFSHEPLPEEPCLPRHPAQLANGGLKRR
Chain of FGFR1 kinase (P11362 22-822): as above

With `Cc1cc(CNc2nccc(Nc3cc(C4CCCC4)[nH]n3)n2)on1` [Example 13, N′-(5-cyclopentyl-2H-pyrazol-3-yl)-N-[(3-methyl-1,2-oxazol-5-yl)methyl]pyrimidine-2,4-diamine] as the compound, how does the IC50 (FGFR1 IIIc [1]) read?
Its IC50 is less than 1000 nM.

And the IC50 (FGFR1 IIIc [2])?
The IC50 was less than 0.2 µM.

Which IC50 (Erk phosphorylation) does the source give for `COc1cc(OC)cc(OCc2cc(Nc3ccnc(NCc4cc(C)no4)n3)n[nH]2)c1` [Example 44, N′-[5-[(3,5-Dimethoxyphenoxy)methyl]-2H-pyrazol-3-yl]-N-[(3-methyl1,2-oxazol-5-yl)methyl]pyrimidine-2,4-diamine] here?
Its IC50 is less than 200 nM.

And the IC50 (FGFR1 kinase)?
Its IC50 is less than 200 nM.

What about the IC50 (FGFR1 IIIc [1]) of the same compound?
Its IC50 is less than 1000 nM.

What about the IC50 (human IGF1R) of the same compound?
The IC50 was greater than 10 µM.

`COc1ccc(OC)c(CCc2cc(Nc3ccnc(NCc4cc(C)no4)n3)n[nH]2)c1` [Example 45, N′-[5-[2-(2,5-dimethoxyphenyl)ethyl]-2H-pyrazol-3-yl]-N-[(3-methyl1,2-oxazol-5-yl)methyl]pyrimidine-2,4-diamine] was tested. Which IC50 (FGFR1 kinase) did it give?
The IC50 was less than 1000 nM.

And the IC50 (FGFR1 IIIc [2])?
The IC50 was less than 10 µM.

`COc1ncc(CCc2cc(Nc3ccnc(NCc4cc(C)no4)n3)n[nH]2)c(OC)n1` [Example 60, N′-[5-[2-(2,4-dimethoxypyrimidin-5-yl)ethyl]-1H-pyrazol-3-yl]-N-[(3-methyl-1,2-oxazol-5-yl)methyl]pyrimidine-2,4-diamine] was tested. Which IC50 (FGFR1 kinase) did it give?
Its IC50 is less than 1000 nM.

What about the IC50 (human IGF1R) of the same compound?
Its IC50 is greater than 10 µM.

What about the IC50 (FGFR1 IIIc [2]) of the same compound?
Its IC50 is less than 30 µM.

Which IC50 (FGFR1 kinase) does the source give for `COc1cccc(CCc2cc(Nc3ccnc(NCc4cc(CO)no4)n3)[nH]n2)c1` [Example 61, [5-[[[4-[[5-[2-(3-methoxyphenyl)ethyl]-2H-pyrazol-3-yl]amino]pyrimidin-2-yl]amino]methyl]-1,2-oxazol-3-yl]methanol] here?
Its IC50 is less than 200 nM.

And the IC50 (human IGF1R)?
The IC50 was greater than 10 µM.

And the IC50 (FGFR1 IIIc [2])?
Its IC50 is less than 1 µM.

What does the source list for `CNC(=O)c1cc(CNc2nccc(Nc3cc(OC(C)C)n[nH]3)n2)on1` [Example 79, N-methyl-5-[[[4-[(5-propan-2-yloxy-2H-pyrazol-3-yl)amino]pyrimidin-2-yl]amino]methyl]1,2-oxazole-3-carboxamide]?
IC50 (Erk phosphorylation; upper bound of bin): < 10000 nM; IC50 (FGFR1 kinase): < 200 nM; IC50 (FGFR1 IIIc [1]): < 10000 nM

Which IC50 (Erk phosphorylation; upper bound of bin) does the source give for `CC(C)Oc1cc(Nc2ccnc(NCc3cc(-c4ncccn4)no3)n2)n[nH]1` [Example 82, N′-(5-propan-2-yloxy-2H-pyrazol-3-yl)-N-[(^3-pyrimidin-2-yl-1,2-oxazol-5-yl)methyl]pyrimidine-2,4-diamine] here?
Its IC50 is less than 1000 nM.

And the IC50 (FGFR1 kinase)?
The IC50 was less than 200 nM.

And the IC50 (FGFR1 IIIc [1])?
The IC50 was less than 1000 nM.

Which IC50 (Erk phosphorylation) does the source give for `CC(C)Oc1cc(Nc2ccnc(NCc3cc(C4CCCO4)no3)n2)[nH]n1` (stereo not drawn) [Example 84, N-[[3-(oxolan-2-yl)1,2-oxazol-5-yl]methyl]-N′-(5-propan-2-yloxy-2H-pyrazol-3-yl)pyrimidine-2,4-diamine] here?
The IC50 was less than 200 nM.

And the IC50 (FGFR1 kinase)?
The IC50 was less than 200 nM.

And the IC50 (FGFR1 IIIc [1])?
Its IC50 is less than 1000 nM.

How did the IC50 (Erk phosphorylation; upper bound of bin) turn out when `Cc1cc(CNc2nccc(Nc3cc(OCc4cccc(C(=O)N5CCOCC5)c4)[nH]n3)n2)on1` [Example 90, [3-[[5-[[2-[(3-methyl1,2-oxazol-5-yl)methylamino]pyrimidin-4-yl]amino]-1H-pyrazol-3-yl]oxymethyl]phenyl]-morpholin-4-yl-methanone] was run?
The IC50 was less than 10000 nM.

What about the IC50 (FGFR1 kinase) of the same compound?
The IC50 was less than 10000 nM.

And the IC50 (human IGF1R)?
The IC50 was greater than 10 µM.

`Cc1cc(CNc2nccc(Nc3cc(OCc4cccc(C#N)c4)[nH]n3)n2)on1` [Example 92, 3-[[5-[[2-[(3-methyl1,2-oxazol-5-yl)methylamino]pyrimidin-4-yl]amino]-2H-pyrazol-3-yl]oxymethyl]benzonitrile hydrochloride] was tested. Which IC50 (Erk phosphorylation; upper bound of bin) did it give?
Its IC50 is less than 1000 nM.

And the IC50 (FGFR1 kinase)?
Its IC50 is less than 10000 nM.

And the IC50 (human IGF1R)?
Its IC50 is greater than 10 µM.

What does the source list for `Cc1cc(CNc2nccc(Nc3cc(OCc4ccc(C(F)(F)F)cc4)[nH]n3)n2)on1` [Example 96, N-[(3-methyl1,2-oxazol-5-yl)methyl]-N′-[5-[[4-(trifluoromethyl)phenyl]methoxy]-1H-pyrazol-3-yl]pyrimidine-2,4-diamine hydrochloride]?
IC50 (Erk phosphorylation; upper bound of bin): < 10000 nM; IC50 (FGFR1 kinase): < 10000 nM; IC50 (human IGF1R): > 10 µM

How did the IC50 (Erk phosphorylation; upper bound of bin) turn out when `Cc1cc(CNc2nccc(Nc3cc(-c4cccs4)[nH]n3)n2)on1` [Example 104, N-[(3-methyl1,2-oxazol-5-yl)methyl]-N′-(5-thiophen-2-yl-1H-pyrazol-3-yl)pyrimidine-2,4-diamine] was run?
The IC50 was less than 1000 nM.

And the IC50 (FGFR1 kinase)?
Its IC50 is less than 1000 nM.

What about the IC50 (human IGF1R) of the same compound?
Its IC50 is 1 to 10 µM.

Which IC50 (Erk phosphorylation; upper bound of bin) does the source give for `Cc1cc(CNc2nccc(Nc3cc(CCc4nc(-c5ccccc5)no4)[nH]n3)n2)on1` [Example 106, N-[(3-methyl1,2-oxazol-5-yl)methyl]-N′-[5-[2-(3-phenyl-1,2,4-oxadiazol-5-yl)ethyl]-2H-pyrazol-3-yl]pyrimidine-2,4-diamine] here?
The IC50 was less than 1000 nM.

And the IC50 (FGFR1 kinase)?
The IC50 was less than 1000 nM.

And the IC50 (human IGF1R)?
Its IC50 is 1 to 10 µM.

For `Cc1cc(CNc2nccc(Nc3cc(CCc4ccco4)[nH]n3)n2)on1` [Example 107, N′-[5-[2-(2-furyl)ethyl]-2H-pyrazol-3-yl]-N-[(3-methyl1,2-oxazol-5-yl)methyl]pyrimidine-2,4-diamine], which IC50 (Erk phosphorylation; upper bound of bin) is on record?
Its IC50 is less than 1000 nM.

And the IC50 (FGFR1 kinase)?
The IC50 was less than 200 nM.

What about the IC50 (human IGF1R) of the same compound?
Its IC50 is greater than 10 µM.

For `Cc1cc(CNc2nccc(Nc3cc(C4CCOCC4)[nH]n3)n2)on1` [Example 114, N-[(3-methyl1,2-oxazol-5-yl)methyl]-N′-[5-(oxan-4-yl)-1H-pyrazol-3-yl]pyrimidine-2,4-diamine hydrochloride], which IC50 (Erk phosphorylation; upper bound of bin) is on record?
Its IC50 is less than 10000 nM.

And the IC50 (FGFR1 kinase)?
The IC50 was less than 10000 nM.

What about the IC50 (human IGF1R) of the same compound?
Its IC50 is greater than 10 µM.

Which IC50 (Erk phosphorylation; upper bound of bin) does the source give for `Cc1cc(CNc2nccc(Nc3cc(CCc4cccnc4)[nH]n3)n2)on1` [Example 115, N-[(3-methyl1,2-oxazol-5-yl)methyl]-N′-[5-(2-pyridin-3-ylethyl)-2H-pyrazol-3-yl]pyrimidine-2,4-diamine] here?
The IC50 was less than 10000 nM.

And the IC50 (FGFR1 kinase)?
The IC50 was less than 1000 nM.

And the IC50 (human IGF1R)?
Its IC50 is greater than 10 µM.

Which results are given for `Cc1cc(CNc2nccc(Nc3cc(CCc4ccncc4)[nH]n3)n2)on1` [Example 116, N-[(3-methyl-1,2-oxazol-5-yl)methyl]-N′-[5-(2-pyridin-4-ylethyl)-2H-pyrazol-3-yl]pyrimidine-2,4-diamine]?
IC50 (FGFR1 kinase): < 10000 nM; IC50 (human IGF1R): > 10 µM; IC50 (FGFR1 IIIc [2]): < 30 µM

Which results are given for `Cc1cc(CNc2nccc(Nc3cc(CCc4cn(C)cn4)[nH]n3)n2)on1` [Example 119, N′-[5-[2-(1-methylimidazol-4-yl)ethyl]-1H-pyrazol-3-yl]-N-[(3-methyl-1,2-oxazol-5-yl)methyl]pyrimidine-2,4-diamine]?
IC50 (FGFR1 kinase): < 10000 nM; IC50 (FGFR1 IIIc [2]): < 30 µM

Which results are given for `Cc1cc(CNc2nccc(Nc3cc(CCc4ccc(CN(C)C)o4)[nH]n3)n2)on1` [Example 121, N′-[5-[2-[5-(dimethylaminomethyl)-2-furyl]ethyl]-1H-pyrazol-3-yl]-N-[(3-methyl-1,2-oxazol-5-yl)methyl]pyrimidine-2,4-diamine]?
IC50 (FGFR1 kinase): < 1000 nM; IC50 (FGFR1 IIIc [2]): < 30 µM
